Reference: publication PMC11051159, “Green Synthesis of Gold Nanoparticles Using Liquiritin and Other Phenolics from Glycyrrhiza glabra and Their Anti-Inflammatory Activity” (Journal of Functional Biomaterials, 2024)
In brackets after ≈: the same amount, converted by molar mass. Like-named read-outs stand apart in the source and are kept apart here.

How the values were obtained:
PC12 cells = tested on: PC12 cells; set-up: method as in PMID 19789989; conditions: PC12 cells in the presence of neuronal growth factor, 3- and 5-day periods; cited from earlier work
RAW 264.7 cells = assay: Cell viability assay (WST-1); format: cell-based, murine; conditions: for IC50: Mus musculus; for concentration at which cell viability was significantly decreased (cytotoxic): range tested 0–100 μg/mL; for effect on cell viability (in words): 0–100 μg/mL
Procedure: (§1) The RAW 264.7 cells were seeded at 1 × 10^6 cells/mL in 96-well tissue culture-treated plates for cell viability and nitric oxide assays. The seeded cells were incubated under standard tissue culture conditions at 37 °C in a humidified atmosphere of 5% CO2 for approximately 24 h until the cells reached 70–80% confluence. The cells were subsequently exposed to the relevant AuNP conjugates, total extract, or compounds. After that, the cells were either left unstimulated or stimulated with 1 μg/mL lipopolysaccharide (LPS, from E. coli O111:B4, Sigma-Aldrich) to yield a final concentration range of 0–100 μg/mL of the appropriate treatment. The cells were then incubated overnight under standard tissue culture conditions.
(§2) The supernatants were removed after incubation, and cells were washed with phosphate-buffered saline (PBS, Lonza). Cell viability was assessed by adding 50 μL of a 1/10 dilution of 2-(4-iodophenyl)-3-(4-nitrophenyl)-5-(2,4-disulfophenyl)-2H-tetrazolium (WST-1, Roche, Basel, Switzerland) in complete DMEM medium to each well. Metabolically active cells convert the WST-1 reagent to a formazan that can be measured spectrophotometrically. Formazan formation was determined by reading the plate at 450 nm immediately after adding WST-1 and again after an incubation period of 1 h at 37 °C. The increase in absorbance is proportional to formazan formation and directly proportional to cell viability. The difference between the zero-absorbance reading and 1 hr incubation was used to calculate the percentage of cell viability. Cell viability was calculated as a percentage of the control using the below formula:(1) Cell viability as a % of Control=T1−T0/U1−U0×100 where T1 is the absorbance of the treated sample after 1 h, T0 is the absorbance of the treated at 0 h, U1 is the absorbance of the untreated sample after 1h, and U0 is the absorbance of the untreated sample at 0 h.

[1] = tested on: NO production, RAW 264.7 cells; assay: Nitric oxide (NO) assay (Griess reaction); format: cell-based, murine; conditions: for IC50: Mus musculus, RAW264.7, RAW 264.7, 1 μg/mL LPS, pure compound, ± SEM, read-out: Approximate NO IC50, +LPS, Comp.; for concentration at which NO production / inflammatory activity was reduced: non-toxic concentrations
Procedure: as §1
In the initial development of the assay, polymyxin inhibition of LPS inflammatory activity was checked. Polymyxin was established to inhibit LPS-induced inflammatory activity in macrophage cultures. Cell culture supernatants were removed after the overnight incubation with the relevant treatment. They were used to determine the amount of nitrite produced by the cells and used as an indication of NO production. The amount of NO produced was determined against a 0–100 μM nitrite standard range (Sigma-Aldrich). Culture supernatants or nitrite standard (50 μL) were mixed with 50 μL of Griess reagent (Sigma-Aldrich). The absorbance was subsequently read spectrophotometrically at 540 nm (Multiskan Ex, Thermo Electron Corporation, Vantaa, Finland), and the amount of NO produced by the cells was quantified. NO levels were not determined at cytotoxic concentrations.
The NO assay based on the Griess reaction was used to assess the production of NO from the RAW cells after the exposure to the NP extract/pure compounds in either the absence or presence of LPS.

human liver cells, HepG2 = tested on: human liver cells, HepG2; set-up: method as in PMID 31956937; conditions: concentrations ≥ 120 μM, 24 hrs; cited from earlier work
B65 neuroblastomas = tested on: B65 neuroblastomas; set-up: method as in PMID 28970010; conditions: after 48 h; cited from earlier work
RAW 264.7 cell = tested on: RAW 264.7 cell; set-up: method as in PMID 18295200, PMID 25871879; conditions: 0–1.6 μM or 0–200 μM, 24 h; cited from earlier work
[2] = Cell viability assay (WST-1); format: cell-based, murine; conditions: mouse, RAW 264.7 cells; −LPS, at concentrations ≥ 50 μg/mL; read-out: percentage of viable cells
Procedure: as §1, §2

[3] = RAW264.7, RAW 264.7, 1 μg/mL LPS, pure compound/extract, overnight exposure, ± SEM, read-out: Approximate cell viability IC50, +LPS, Comp.
[4] = RAW264.7, RAW 264.7, unstimulated (−LPS), pure compound/extract, overnight exposure, ± SEM, read-out: Approximate cell viability IC50, −LPS, Comp.
[5] = RAW 264.7, absence of LPS (basal)

Row | Compound | IC50 (RAW 264.7 cells; [3]) [µg/mL] | IC50 (RAW 264.7 cells; [4]) [µg/mL] | concentration at which cell viability was significantly decreased (cytotoxic) (RAW 264.7 cells; [5]) [µg/mL] | concentration at which cell viability was significantly decreased (cytotoxic) (RAW 264.7 cells; RAW 264.7, presence of LPS) [µg/mL] | IC50 [1] [µg/mL] | effect on NO secretion (in words) [1, 5] | effect on NO secretion (in words) ([1]; RAW 264.7, presence of LPS) | also measured
1 | O=C1C[C@@H](c2ccc(O[C@@H]3O[C@H](CO)[C@@H](O)[C@H](O)[C@H]3O)cc2)Oc2cc(O)ccc21 [Comp. 1, liquiritin] | ~60.5 (≈ 145 µM) | ~39.7 (≈ 94.9 µM) | 50 to 100 | 50 to 100 | ~16.5 (≈ 39.4 µM) | did not elicit NO secretion | inhibited NO secretion | concentration at which cell viability decreased (PC12 cells): ≥ 50 µg/mL; concentration at which cell viability was significantly decreased (cytotoxic) (RAW 264.7 cells; RAW 264.7, absence of LPS (basal), listed as liquiritin (1)): ≥ 50 µg/mL; concentration at which NO production / inflammatory activity was reduced ([1]; RAW 264.7, presence of LPS, listed as Compound 1): 25 µg/mL; concentration at which NO production / inflammatory activity was reduced ([1]; RAW 264.7, presence of LPS, listed as liquiritin): ≥ 25 µg/mL; HepG2 viability (human liver cells, HepG2): below 40%
2 | O=C(/C=C/c1ccc(O[C@@H]2O[C@H](CO)[C@@H](O)[C@H](O)[C@H]2O)cc1)c1ccc(O)cc1O [Comp. 2, isoliquiritin] |  |  | 100 |  |  | did not affect the level of NO |  | concentration at which viability was reduced (B65 neuroblastomas): 100 µM; effect on cell viability (in words) (RAW 264.7 cells; RAW 264.7, presence of LPS): no cytotoxicity was exhibited; effect on cell viability (in words) (RAW 264.7 cells; RAW 264.7, presence of LPS, listed as Isoliquiritin (2)): no effect on viability; effect on cell viability (in words) (RAW 264.7 cells; RAW 264.7, presence of LPS, listed as isoliquiritin (2)): did not hinder cell proliferation; effect on RAW 264.7 cell viability (in words) (RAW 264.7 cell): not affected
3 | O=C(/C=C/c1ccc(O)cc1)c1ccc(O[C@@H]2O[C@H](CO)[C@@H](O)[C@H](O)[C@H]2O)cc1O [Comp. 3, neoisoliquiritin] |  |  |  |  |  | did not affect the level of NO | did not affect the level of NO | 
4 | CC1(C)C=Cc2c(ccc3c2OC[C@@H](c2ccc(O)cc2O)C3)O1 [Comp. 6, glabridin] | ~27.2 (≈ 83.9 µM) | ~28.4 (≈ 87.6 µM) | ≥ 50 | ≥ 25 | ~27.5 (≈ 84.8 µM) | did not affect NO production | inhibited NO secretion | viability [2]: ≤ 30%; percentage viability (RAW 264.7 cells; +LPS, at concentrations ≥ 25 μg/mL): 65 to 9%; concentration at which toxicity was seen (RAW 264.7 cells; RAW 264.7, LPS status not stated): > 25 µg/mL; concentration at which NO production / inflammatory activity was reduced ([1]; RAW 264.7, presence of LPS): ≥ 12.5 µg/mL
5 | isoliquiritin apioside [Comp. 4] |  |  |  |  |  | did not elicit an inflammatory response | did not impact NO secretion | cell viability reduced to (RAW 264.7 cells; +LPS, 25 μg/mL): 60%; cell viability reduced to (RAW 264.7 cells; +LPS, 50 μg/mL): 70%
6 | liquiritin apioside [Comp. 5] |  |  |  |  |  |  |  | concentration at which cell viability was increased (mitogenic effect) (RAW 264.7 cells; RAW 264.7, presence of LPS): 25 µg/mL; Approximate cell viability IC50, −LPS, Comp. (RAW 264.7 cells; RAW 264.7, unstimulated (−LPS), pure compound/extract, overnight exposure, ± SEM): 47.8 ± 0.2 µg/mL; cell viability reduced to (RAW 264.7 cells; −LPS, 100 μg/mL): 40%; reduction of cell viability (RAW 264.7 cells; −LPS, at concentrations ≥ 50 μg/mL): 40%
